# Calls of active or inactive are those of the source. No cut-off for these calls is given here.
# Key:
# Cell membrane [1] = experiment: Induction of cell membrane permeability in Staphylococcus aureus ATCC 25923 assessed as increase in fluorescence intensity at 4 times MIC incubated for 30 mins by PI staining based analysis; format: cell membranes
# Staphylococcus aureus [2] = experiment: Synergistic antibacterial activity against methicillin-resistant Staphylococcus aureus ATCC 43300 assessed as gentamicin MIC incubated for 18 to 20 hrs by checkboard assay; format: functional; details: time 18-20 hrs
# [3] = Cytotoxicity against human THP-1 cells assessed as reduction in cell viability incubated for 24 hrs by resazurin staining based analysis; format: toxicity
# Staphylococcus aureus [4] = experiment: Synergistic antibacterial activity against methicillin-resistant Staphylococcus aureus ATCC 43300 assessed as fractional inhibitory concentration index incubated for 18 to 20 hrs in presence of gentamicin by checkboard assay; format: functional; details: time 18-20 hrs
# Enterococcus faecalis [5] = experiment: Synergistic antibacterial activity against Enterococcus faecalis ATCC 29212 incubated for 18 to 20 hrs in presence of ciprofloxacin by checkboard assay; format: functional; details: time 18-20 hrs
# Staphylococcus aureus [6] = experiment: Antimicrobial activity against methicillin-resistant Staphylococcus aureus ATCC 43300 infected in Caenorhabditis elegans AU37 assessed as reduction in bacterial burden at 20 uM incubated for 18 hrs; format: functional; parameters: scale not given: the % may be the effect or the level left
# [7] = Selectivity index, ratio of CC50 for cytotoxicity against human THP-1 cells assessed as reduction in cell viability to MIC for antibacterial activity against methicillin-resistant Staphylococcus aureus assessed as reduction in bacterial growth; format: toxicity, cell-based; details: read-out: Selectivity Index
# Staphylococcus aureus [8] = experiment: Synergistic antibacterial activity against Staphylococcus aureus ATCC 25923 assessed as fractional inhibitory concentration index incubated for 18 to 20 hrs in presence of gentamicin by checkboard assay; format: functional; details: time 18-20 hrs
# Enterococcus faecalis [9] = experiment: Synergistic antibacterial activity against Enterococcus faecalis ATCC 29212 assessed as fractional inhibitory concentration index incubated for 18 to 20 hrs in presence of linezolid by checkboard assay; format: functional; details: time 18-20 hrs
# Enterococcus faecalis [10] = experiment: Antibacterial activity against Enterococcus faecalis ATCC 29212 assessed as reduction in bacterial growth incubated for 18 to 20 hrs by broth microdilution assay; format: functional; details: time 18-20 hrs
# Staphylococcus aureus [11] = experiment: Antimicrobial activity against Staphylococcus aureus ATCC 25923 infected in Caenorhabditis elegans AU37 assessed as reduction in bacterial burden at 20 uM incubated for 18 hrs; format: functional; parameters: scale not given: the % may be the effect or the level left
# Enterococcus faecalis [12] = experiment: Synergistic antibacterial activity against Enterococcus faecalis ATCC 29212 incubated for 18 to 20 hrs in presence of linezolid by checkboard assay; format: functional; details: time 18-20 hrs
# Staphylococcus aureus [13] = experiment: Synergistic antibacterial activity against Staphylococcus aureus ATCC 25923 assessed as linezolid MIC incubated for 18 to 20 hrs by checkboard assay; format: functional; details: time 18-20 hrs
# [14] = test system: Staphylococcus epidermidis; experiment: Antibacterial activity against […] Staphylococcus epidermidis RP62A assessed as reduction in bacterial growth incubated for 18 to 20 hrs by broth microdilution assay; format: functional; details: time 18-20 hrs
# Staphylococcus aureus [15] = experiment: Synergistic antibacterial activity against methicillin-resistant Staphylococcus aureus ATCC 43300 assessed as fractional inhibitory concentration index incubated for 18 to 20 hrs in presence of ciprofloxacin by checkboard assay; format: functional; details: time 18-20 hrs
# Staphylococcus aureus [16] = experiment: Synergistic antibacterial activity against methicillin-resistant Staphylococcus aureus ATCC 43300 incubated for 18 to 20 hrs in presence of gentamicin by checkboard assay; format: functional; details: time 18-20 hrs
# Enterococcus faecalis [17] = experiment: Synergistic antibacterial activity against Enterococcus faecalis ATCC 29212 assessed as gentamicin MIC incubated for 18 to 20 hrs by checkboard assay; format: functional; details: time 18-20 hrs
# Staphylococcus aureus [18] = experiment: Antibiofilm activity against Staphylococcus aureus ATCC 25923 assessed as inhibition of biofilm viability at 100 uM incubated for 18 to 20 hrs by resazurin staining based assay; format: functional; details: time 18-20 hrs
# Staphylococcus aureus [19] = experiment: Bactericidal activity against methicillin-resistant Staphylococcus aureus assessed as reduction in bacterial growth at 0.5 to 8 times MIC incubated for 24 hrs by time-kill assay; format: functional
# [20] = Toxicity in Caenorhabditis elegans AU37 assessed as worms survival at 10 uM measured after 72 hrs
# Pseudomonas aeruginosa = experiment: Antibacterial activity against Pseudomonas aeruginosa ATCC 15442 assessed as reduction in bacterial growth incubated for 18 to 20 hrs by broth microdilution assay; format: functional; details: time 18-20 hrs
# Staphylococcus aureus [21] = experiment: Bactericidal activity against Staphylococcus aureus ATCC 25923 at 4 times MIC measured after 6 hrs by time kill-assay; format: functional, organism-based
# Staphylococcus aureus [22] = experiment: Synergistic antibacterial activity against Staphylococcus aureus ATCC 25923 incubated for 18 to 20 hrs in presence of vancomycin by checkboard assay; format: functional; details: time 18-20 hrs
# Staphylococcus aureus [23] = experiment: Synergistic antibacterial activity against Staphylococcus aureus ATCC 25923 assessed as fractional inhibitory concentration index incubated for 18 to 20 hrs in presence of linezolid by checkboard assay; format: functional; details: time 18-20 hrs
# Enterococcus faecalis [24] = experiment: Synergistic antibacterial activity against Enterococcus faecalis ATCC 29212 assessed as fractional inhibitory concentration index incubated for 18 to 20 hrs in presence of ciprofloxacin by checkboard assay; format: functional; details: time 18-20 hrs
# Acinetobacter baumannii = experiment: Antibacterial activity against Acinetobacter baumannii NCTC 13423 assessed as reduction in bacterial growth incubated for 18 to 20 hrs by broth microdilution assay; format: functional; details: time 18-20 hrs
# [25] = test system: Staphylococcus epidermidis; experiment: Antibacterial activity against Staphylococcus epidermidis RP62A assessed as reduction in bacterial growth incubated for 18 to 20 hrs by broth microdilution assay; format: functional; details: time 18-20 hrs
# [26] = Hemolytic activity in mouse RBC assessed as hemolysis at 250 uM incubated for 1 hr; format: toxicity, cell-based, Erythrocyte; details: mouse red blood cells (erythrocytes), read-out: Activity
# Enterococcus faecalis [27] = experiment: Synergistic antibacterial activity against Enterococcus faecalis ATCC 29212 assessed as vancomycin MIC incubated for 18 to 20 hrs by checkboard assay; format: functional; details: time 18-20 hrs
# Staphylococcus aureus [28] = experiment: Synergistic antibacterial activity against methicillin-resistant Staphylococcus aureus ATCC 43300 assessed as vancomycin MIC incubated for 18 to 20 hrs by checkboard assay; format: functional; details: time 18-20 hrs
# [29] = Selectivity index, ratio of CC50 for cytotoxicity against human THP-1 cells assessed as reduction in cell viability to MIC for antibacterial activity against methicillin-resistant Staphylococcus epidermidis assessed as reduction in bacterial growth; format: toxicity, cell-based; details: read-out: Selectivity Index
# Staphylococcus aureus [30] = experiment: Synergistic antibacterial activity against methicillin-resistant Staphylococcus aureus ATCC 43300 assessed as fractional inhibitory concentration index incubated for 18 to 20 hrs in presence of linezolid by checkboard assay; format: functional; details: time 18-20 hrs
# Erythrocyte = experiment: Hemolytic activity in mouse RBC assessed as hemolysis at 62.5 uM incubated for 1 hr; format: toxicity, cell-based
# Staphylococcus aureus [31] = experiment: Synergistic antibacterial activity against Staphylococcus aureus ATCC 25923 assessed as fractional inhibitory concentration index incubated for 18 to 20 hrs in presence of vancomycin by checkboard assay; format: functional; details: time 18-20 hrs
# Staphylococcus aureus [32] = experiment: Antimicrobial activity against Staphylococcus aureus ATCC 25923 infected in Caenorhabditis elegans AU37 assessed as reduction in number of viable bacteria at 20 uM incubated for 18 hrs; format: functional, organism-based
# Cell membrane [33] = experiment: Induction of cell membrane damage in Staphylococcus aureus ATCC 25923 at 8 times MIC incubated for 2 hrs by scanning electron microscopic analysis; format: cell membranes
# Staphylococcus aureus [34] = experiment: Bactericidal activity against Staphylococcus aureus ATCC 25923 assessed as reduction in bacterial growth at 0.5 to 8 times MIC incubated for 24 hrs by time-kill assay; format: functional
# Staphylococcus aureus [35] = experiment: Synergistic antibacterial activity against Staphylococcus aureus ATCC 25923 assessed as vancomycin MIC incubated for 18 to 20 hrs by checkboard assay; format: functional; details: time 18-20 hrs
# Staphylococcus aureus [36] = experiment: Drug resistance, ratio of MIC for methicillin-resistant Staphylococcus aureus after 20 days exposure to MIC for methicillin-resistant Staphylococcus aureus during first exposure; format: functional; details: time 20 day
smiles,measurement,setting,value
O=C(O)c1cc2cc(OCc3ccc(C4CCCCC4)c(C(F)(F)F)c3)ccc2[nH]1,Activity,Cell membrane [1],inactive
same,MIC,Staphylococcus aureus [2],32 µg/mL
same,CC50 at 24 h,[3],> 100 µM
same,fractional inhibitory concentration index (FICI),Staphylococcus aureus [4],<=0.5
same,MIC,Enterococcus faecalis [5],1.25 µM
same,Activity,Staphylococcus aureus [6],88%
same,selectivity ratio,[7],> 12
same,fractional inhibitory concentration index (FICI),Staphylococcus aureus [8],0.5
same,fractional inhibitory concentration index (FICI),Enterococcus faecalis [9],2
same,MIC,Enterococcus faecalis [10],5 µM
same,Activity,Staphylococcus aureus [11],>85%
same,MIC,Enterococcus faecalis [12],5 µM
same,MIC,Staphylococcus aureus [13],5 µM
same,MIC,[14],2.5 µM
same,fractional inhibitory concentration index (FICI),Staphylococcus aureus [15],1
same,MIC,Staphylococcus aureus [16],0.625 µM
same,MIC,Enterococcus faecalis [17],1 µg/mL
same,inhibition at 100 µM,Staphylococcus aureus [18],> 90%
same,MBC,Staphylococcus aureus [19],5 µM
same,Activity,[20],Non-Toxic
same,MIC,Pseudomonas aeruginosa,> 200 µM
same,Activity,Staphylococcus aureus [21],Active
same,MIC,Staphylococcus aureus [22],2.2 µM
same,fractional inhibitory concentration index (FICI),Staphylococcus aureus [23],1
same,fractional inhibitory concentration index (FICI),Enterococcus faecalis [24],0.75
same,MIC,Acinetobacter baumannii,> 200 µM
same,MIC,[25],2.5 µM
same,"hemolysis at 1 h, 250 µM",[26],100%
same,MIC,Enterococcus faecalis [27],2.5 µM
same,MIC,Staphylococcus aureus [28],1.25 µM
same,selectivity ratio,[29],> 12
same,fractional inhibitory concentration index (FICI),Staphylococcus aureus [30],1
same,Activity,Erythrocyte,Non-Toxic
same,fractional inhibitory concentration index (FICI),Staphylococcus aureus [31],0.75
same,Activity,Staphylococcus aureus [32],Active
same,Activity,Cell membrane [33],inactive
same,MBC,Staphylococcus aureus [34],5 µM
same,MIC,Staphylococcus aureus [35],0.625 µM
same,Ratio,Staphylococcus aureus [36],3

# — ChEMBL document CHEMBL5532643, “Design and synthesis of etrasimod derivatives as potent antibacterial agents against Gram-positive bacteria” (Eur J Med Chem, 2024)
